Source: ChEMBL document CHEMBL5500332, “Structure-based approaches for the design of 6-aryl-1-(3,4,5-trimethoxyphenyl)-1H-benzo[d][1,2,3]triazoles as tubulin polymerization inhibitors” (Eur J Med Chem, 2024)
Active and inactive are the calls of the source. No cut-off for these calls is given here.

Experiments:
[1] = system: MCF7; assay: Antiproliferative activity against human MCF7 cells measured after 72 hrs by MTT assay; type: functional, cell-based; settings: MCF7, 72 h
[2] = system: SGC-7901; assay: Antiproliferative activity against human SGC-7901 cells measured after 72 hrs by MTT assay; type: functional, cell-based; settings: SGC-7901, 72 h
[3] = system: A549; assay: Antiproliferative activity against human A549 cells measured after 72 hrs by MTT assay; type: functional, cell-based; settings: A549, 72 h
[4] = target: T1, Tubulin (Homo sapiens) (UniProt P68371+Q9H4B7+P0DPH7+P68366+Q13509+Q71U36+P04350+Q3ZCM7+P07437+P68363+Q9BQE3+Q6PEY2+Q13885+Q9BVA1+Q9BUF5); assay: Inhibition of tubulin polymerization (unknown origin) measured every 60 secs for 90 mins by microplate reader based analysis; type: protein-complex assay; settings: dose 1-8 µM
[5] = target: T1, Tubulin (Homo sapiens); assay: Disruption of microtubule network in human MCF7 cells incubated for 24 hrs by immunofluorescence staining based confocal microscopic analysis; type: cell-based
[6] = system: MCF7; assay: Induction of cell cycle arrest in human MCF7 cells assessed as accumulation of cells at G0/G1 phase at 20 nM incubated for 24 hrs by PI staining based flow cytometry analysis (reference value: 69.67%); type: functional
[7] = system: MCF7; assay: Induction of cell cycle arrest in human MCF7 cells assessed as accumulation of cells at G0/G1 phase at 40 nM incubated for 24 hrs by PI staining based flow cytometry analysis (reference value: 69.67%); type: functional
[8] = system: MCF7; assay: Induction of cell cycle arrest in human MCF7 cells assessed as accumulation of cells at G0/G1 phase at 60 nM incubated for 24 hrs by PI staining based flow cytometry analysis (reference value: 69.67%); type: functional
[9] = system: MCF7; assay: Induction of cell cycle arrest in human MCF7 cells assessed as accumulation of cells at S phase at 20 nM incubated for 24 hrs by PI staining based flow cytometry analysis (reference value: 14.58%); type: functional
[10] = system: MCF7; assay: Induction of cell cycle arrest in human MCF7 cells assessed as accumulation of cells at S phase at 40 nM incubated for 24 hrs by PI staining based flow cytometry analysis (reference value: 14.58%); type: functional
[11] = system: MCF7; assay: Induction of cell cycle arrest in human MCF7 cells assessed as accumulation of cells at S phase at 60 nM incubated for 24 hrs by PI staining based flow cytometry analysis (reference value: 14.58%); type: functional
[12] = system: MCF7; assay: Induction of cell cycle arrest in human MCF7 cells assessed as accumulation of cells at G2/M phase at 20 nM incubated for 24 hrs by PI staining based flow cytometry analysis (reference value: 14.36%); type: functional
[13] = system: MCF7; assay: Induction of cell cycle arrest in human MCF7 cells assessed as accumulation of cells at G2/M phase at 40 nM incubated for 24 hrs by PI staining based flow cytometry analysis (reference value: 14.36%); type: functional
[14] = system: MCF7; assay: Induction of cell cycle arrest in human MCF7 cells assessed as accumulation of cells at G2/M phase at 60 nM incubated for 24 hrs by PI staining based flow cytometry analysis (reference value: 14.36%); type: functional
[15] = system: MCF7; assay: Induction of apoptosis in human MCF7 cells assessed as viable cells at 20 nM incubated for 48 hrs by annexin V-FITC and PI staining based flow cytometry analysis (reference value: 92.4%); type: functional; settings: read-out: Activity
[16] = system: MCF7; assay: Induction of apoptosis in human MCF7 cells assessed as viable cells at 40 nM incubated for 48 hrs by annexin V-FITC and PI staining based flow cytometry analysis (reference value: 92.4%); type: functional; settings: read-out: Activity
[17] = system: MCF7; assay: Induction of apoptosis in human MCF7 cells assessed as viable cells at 60 nM incubated for 48 hrs by annexin V-FITC and PI staining based flow cytometry analysis (reference value: 92.4%); type: functional; settings: read-out: Activity
[18] = system: MCF7; assay: Induction of apoptosis in human MCF7 cells assessed as early apoptotic cells at 20 nM incubated for 48 hrs by annexin V-FITC and PI staining based flow cytometry analysis (reference value: 2.17%); type: functional
[19] = system: MCF7; assay: Induction of apoptosis in human MCF7 cells assessed as early apoptotic cells at 40 nM incubated for 48 hrs by annexin V-FITC and PI staining based flow cytometry analysis (reference value: 2.17%); type: functional
[20] = system: MCF7; assay: Induction of apoptosis in human MCF7 cells assessed as early apoptotic cells at 60 nM incubated for 48 hrs by annexin V-FITC and PI staining based flow cytometry analysis (reference value: 2.17%); type: functional
[21] = system: MCF7; assay: Induction of apoptosis in human MCF7 cells assessed as late apoptotic cells at 20 nM incubated for 48 hrs by annexin V-FITC and PI staining based flow cytometry analysis (reference value: 2.22%); type: functional
[22] = system: MCF7; assay: Induction of apoptosis in human MCF7 cells assessed as late apoptotic cells at 40 nM incubated for 48 hrs by annexin V-FITC and PI staining based flow cytometry analysis (reference value: 2.22%); type: functional
[23] = system: MCF7; assay: Induction of apoptosis in human MCF7 cells assessed as late apoptotic cells at 60 nM incubated for 48 hrs by annexin V-FITC and PI staining based flow cytometry analysis (reference value: 2.22%); type: functional
[24] = system: MCF7; assay: Induction of apoptosis in human MCF7 cells assessed as necrotic cells at 20 nM incubated for 48 hrs by annexin V-FITC and PI staining based flow cytometry analysis (reference value: 2.25%); type: functional
[25] = system: MCF7; assay: Induction of apoptosis in human MCF7 cells assessed as necrotic cells at 40 nM incubated for 48 hrs by annexin V-FITC and PI staining based flow cytometry analysis (reference value: 2.25%); type: functional
[26] = system: MCF7; assay: Induction of apoptosis in human MCF7 cells assessed as necrotic cells at 60 nM incubated for 48 hrs by annexin V-FITC and PI staining based flow cytometry analysis (reference value: 2.25%); type: functional
[27] = system: MCF7; assay: Induction of cell cycle arrest in human MCF7 cells incubated for 24 hrs by PI staining based flow cytometry analysis; type: functional; settings: dose 20-60 nM
[28] = system: MCF7; assay: Induction of apoptosis in human MCF7 cells incubated for 48 hrs by annexin V-FITC and PI staining based flow cytometry analysis; type: functional, cell-based; settings: dose 20-60 nM
[29] = system: MCF7; assay: Inhibition of cell migration in human MCF7 cells at 20 to 40 nM incubated for 24 hrs by wound healing assay; type: functional, cell-based; settings: dose 20-40 nM
[30] = system: MCF7; assay: Inhibition of colony formation in human MCF7 cells measured after 24 hrs by crystal violet staining based analysis; type: functional, cell-based; settings: dose 20-40 nM
[31] = system: MCF7; assay: Inhibition of colony formation in human MCF7 cells at 60 nM measured after 24 hrs by crystal violet staining based analysis relative to control; type: functional
[32] = system: 4T1; assay: Antiproliferative activity against mouse 4T1 cells measured after 72 hrs by MTT assay; type: functional, cell-based; settings: 4T1, 72 h
[33] = system: 4T1; assay: Antitumor activity against mouse 4T1 cells xenografted in BALB/c mouse model assessed as tumor growth inhibition rate at 5 mg/kg, iv measured every two days for 2 weeks relative to control; type: functional; settings: 4T1, 336 h, read-out: TGI
[34] = system: 4T1; assay: Antitumor activity against mouse 4T1 cells xenografted in BALB/c mouse model assessed as tumor growth inhibition rate at 15 mg/kg, iv measured every two days for 2 weeks relative to control; type: functional; settings: 4T1, 336 h, read-out: TGI
[35] = Toxicity in BALB/c mouse assessed as effect on body weight loss at 5 to 15 mg/kg, iv measured after 2 weeks; type: organism-based; settings: in vivo, 336 h, dose 5-15 mg/kg
[36] = Toxicity in BALB/c mouse assessed as drug tolerance at 5 to 15 mg/kg, iv measured after 2 weeks; type: organism-based; settings: in vivo, 336 h, dose 5-15 mg/kg
[37] = Toxicity in BALB/c mouse assessed as effect on heart at 5 to 15 mg/kg, iv measured after 2 weeks by H and E staining based analysis; type: organism-based; settings: in vivo, 336 h, dose 5-15 mg/kg
[38] = Toxicity in BALB/c mouse assessed as effect on spleen at 5 to 15 mg/kg, iv measured after 2 weeks by H and E staining based analysis; type: organism-based; settings: in vivo, 336 h, dose 5-15 mg/kg
[39] = Toxicity in BALB/c mouse assessed as effect on lung at 5 to 15 mg/kg, iv measured after 2 weeks by H and E staining based analysis; type: organism-based; settings: in vivo, 336 h, dose 5-15 mg/kg
[40] = Toxicity in BALB/c mouse assessed as effect on kidney at 5 to 15 mg/kg, iv measured after 2 weeks by H and E staining based analysis; type: organism-based; settings: in vivo, 336 h, dose 5-15 mg/kg
[41] = Toxicity in BALB/c mouse assessed as effect on liver at 5 to 15 mg/kg, iv measured after 2 weeks by H and E staining based analysis; type: organism-based; settings: in vivo, 336 h, dose 5-15 mg/kg

IC50 [1]: 20 nM | IC50 [2]: 14 nM | IC50 [3]: 45 nM | inhibition [4]: Dose-Dependent Effect | Activity [5]: Active | IC50 [32]: 32 nM
SMILES: COc1ccc(-c2ccc3nnn(-c4cc(OC)c(OC)c(OC)c4)c3c2)cc1O
Activity [6]: 60.54% | Activity [7]: 38.73% | Activity [8]: 27.42% | Activity [9]: 22.71% | Activity [10]: 34.21% | Activity [11]: 21.52% | Activity [12]: 14.84% | Activity [13]: 26.14% | Activity [14]: 50.23% | viability at 0.02 µM [15]: 83.6% | viability at 0.04 µM [16]: 62.9% | viability at 0.06 µM [17]: 60.9% | Activity [18]: 5.47% | Activity [19]: 24.9% | Activity [20]: 26.4% | Activity [21]: 8.16% | Activity [22]: 10.1% | Activity [23]: 10.6% | Activity [24]: 2.8% | Activity [25]: 2.07% | Activity [26]: 2.05% | Activity [27]: Dose-Dependent Effect | Activity [28]: Dose-Dependent Effect | inhibition [29]: Active | inhibition [30]: Dose-Dependent Effect | inhibition at 0.06 µM [31]: 100% | inhibition in vivo at 5 mg/kg [33]: 49.5% | inhibition in vivo at 15 mg/kg [34]: 68.5% | Activity [35]: Non-Toxic | Activity [36]: Non-Toxic | Activity [37]: Non-Toxic | Activity [38]: Non-Toxic | Activity [39]: Non-Toxic | Activity [40]: Non-Toxic | Activity [41]: Non-Toxic
